From ChEMBL document CHEMBL2069290, “Synthesis and biological evaluation of novel oxindole derivatives for imaging neurofibrillary tangles in Alzheimer's disease” (Bioorg Med Chem Lett, 2012)
Active and inactive are the calls of the source. The rule behind the calls is not given here.

Key:
Intestine [1] = assay: Biodistribution in ddY mouse intestine at 3.3 to 6.7 kBq, iv after 10 mins by gamma counting; format: ADME, organism-based; conditions: in vivo
Kidney [2] = assay: Biodistribution in ddY mouse kidney at 3.3 to 6.7 kBq, iv after 10 mins by gamma counting; format: ADME, organism-based; conditions: in vivo
Brain [3] = assay: Biodistribution in ddY mouse brain at 3.3 to 6.7 kBq, iv after 30 mins by gamma counting; format: ADME, organism-based; conditions: in vivo, 0.5 h
Blood [4] = assay: Biodistribution in ddY mouse blood at 3.3 to 6.7 kBq, iv after 60 mins by gamma counting; format: ADME, organism-based; conditions: in vivo, 1 h
Stomach [5] = assay: Biodistribution in ddY mouse stomach assessed per organ at 3.3 to 6.7 kBq, iv after 30 mins by gamma counting; format: ADME, organism-based; conditions: in vivo, 0.5 h
Spleen [6] = assay: Biodistribution in ddY mouse spleen at 3.3 to 6.7 kBq, iv after 10 mins by gamma counting; format: ADME, organism-based; conditions: in vivo
Liver [7] = assay: Biodistribution in ddY mouse liver at 3.3 to 6.7 kBq, iv after 60 mins by gamma counting; format: ADME, organism-based; conditions: in vivo, 1 h
Brain [8] = assay: Biodistribution in ddY mouse brain at 3.3 to 6.7 kBq, iv after 2 mins by gamma counting; format: ADME, organism-based; conditions: in vivo
Blood [9] = assay: Biodistribution in ddY mouse blood at 3.3 to 6.7 kBq, iv after 30 mins by gamma counting; format: ADME, organism-based; conditions: in vivo, 0.5 h
Stomach [10] = assay: Biodistribution in ddY mouse stomach assessed per organ at 3.3 to 6.7 kBq, iv after 2 mins by gamma counting; format: ADME, organism-based; conditions: in vivo
Stomach [11] = assay: Biodistribution in ddY mouse stomach assessed per organ at 3.3 to 6.7 kBq, iv after 10 mins by gamma counting; format: ADME, organism-based; conditions: in vivo
Heart [12] = assay: Biodistribution in ddY mouse heart at 3.3 to 6.7 kBq, iv after 10 mins by gamma counting; format: ADME, organism-based; conditions: in vivo
Pancreas [13] = assay: Biodistribution in ddY mouse pancreas at 3.3 to 6.7 kBq, iv after 2 mins by gamma counting; format: ADME, organism-based; conditions: in vivo
Intestine [14] = assay: Biodistribution in ddY mouse intestine at 3.3 to 6.7 kBq, iv after 30 mins by gamma counting; format: ADME, organism-based; conditions: in vivo, 0.5 h
Spleen [15] = assay: Biodistribution in ddY mouse spleen at 3.3 to 6.7 kBq, iv after 30 mins by gamma counting; format: ADME, organism-based; conditions: in vivo, 0.5 h
Kidney [16] = assay: Biodistribution in ddY mouse kidney at 3.3 to 6.7 kBq, iv after 30 mins by gamma counting; format: ADME, organism-based; conditions: in vivo, 0.5 h
Blood [17] = assay: Biodistribution in ddY mouse blood at 3.3 to 6.7 kBq, iv after 2 mins by gamma counting; format: ADME, organism-based; conditions: in vivo
Blood [18] = assay: Biodistribution in ddY mouse blood at 3.3 to 6.7 kBq, iv after 10 mins by gamma counting; format: ADME, organism-based; conditions: in vivo
Brain [19] = assay: Biodistribution in ddY mouse brain at 3.3 to 6.7 kBq, iv after 60 mins by gamma counting; format: ADME, organism-based; conditions: in vivo, 1 h
Kidney [20] = assay: Biodistribution in ddY mouse kidney at 3.3 to 6.7 kBq, iv after 60 mins by gamma counting; format: ADME, organism-based; conditions: in vivo, 1 h
Liver [21] = assay: Biodistribution in ddY mouse liver at 3.3 to 6.7 kBq, iv after 30 mins by gamma counting; format: ADME, organism-based; conditions: in vivo, 0.5 h
Spleen [22] = assay: Biodistribution in ddY mouse spleen at 3.3 to 6.7 kBq, iv after 2 mins by gamma counting; format: ADME, organism-based; conditions: in vivo
Spleen [23] = assay: Biodistribution in ddY mouse spleen at 3.3 to 6.7 kBq, iv after 60 mins by gamma counting; format: ADME, organism-based; conditions: in vivo, 1 h
Pancreas [24] = assay: Biodistribution in ddY mouse pancreas at 3.3 to 6.7 kBq, iv after 10 mins by gamma counting; format: ADME, organism-based; conditions: in vivo
Heart [25] = assay: Biodistribution in ddY mouse heart at 3.3 to 6.7 kBq, iv after 60 mins by gamma counting; format: ADME, organism-based; conditions: in vivo, 1 h
Liver [26] = assay: Biodistribution in ddY mouse liver at 3.3 to 6.7 kBq, iv after 10 mins by gamma counting; format: ADME, organism-based; conditions: in vivo
Brain [27] = assay: Biodistribution in ddY mouse brain at 3.3 to 6.7 kBq, iv after 10 mins by gamma counting; format: ADME, organism-based; conditions: in vivo
Heart [28] = assay: Biodistribution in ddY mouse heart at 3.3 to 6.7 kBq, iv after 2 mins by gamma counting; format: ADME, organism-based; conditions: in vivo
Liver [29] = assay: Biodistribution in ddY mouse liver at 3.3 to 6.7 kBq, iv after 2 mins by gamma counting; format: ADME, organism-based; conditions: in vivo
Kidney [30] = assay: Biodistribution in ddY mouse kidney at 3.3 to 6.7 kBq, iv after 2 mins by gamma counting; format: ADME, organism-based; conditions: in vivo
Stomach [31] = assay: Biodistribution in ddY mouse stomach assessed per organ at 3.3 to 6.7 kBq, iv after 60 mins by gamma counting; format: ADME, organism-based; conditions: in vivo, 1 h
Pancreas [32] = assay: Biodistribution in ddY mouse pancreas at 3.3 to 6.7 kBq, iv after 30 mins by gamma counting; format: ADME, organism-based; conditions: in vivo, 0.5 h
Brain [33] = assay: Ratio of drug uptake in ddY mouse brain after 2 mins to drug uptake in ddY mouse brain after 30 mins; format: ADME, tissue-based; conditions: in vivo
Intestine [34] = assay: Biodistribution in ddY mouse intestine at 3.3 to 6.7 kBq, iv after 60 mins by gamma counting; format: ADME, organism-based; conditions: in vivo, 1 h
Heart [35] = assay: Biodistribution in ddY mouse heart at 3.3 to 6.7 kBq, iv after 30 mins by gamma counting; format: ADME, organism-based; conditions: in vivo, 0.5 h
Pancreas [36] = assay: Biodistribution in ddY mouse pancreas at 3.3 to 6.7 kBq, iv after 60 mins by gamma counting; format: ADME, organism-based; conditions: in vivo, 1 h
Intestine [37] = assay: Biodistribution in ddY mouse intestine at 3.3 to 6.7 kBq, iv after 2 mins by gamma counting; format: ADME, organism-based; conditions: in vivo
[38] = molecular target: Amyloid-beta precursor protein (Homo sapiens, UniProt P05067); assay: Binding affinity to amyloid beta(1 to 42) aggregates after 30 mins by Thioflavin-S-based fluorescence assay
Amyloid-beta precursor protein, sequence (P05067 whole entry): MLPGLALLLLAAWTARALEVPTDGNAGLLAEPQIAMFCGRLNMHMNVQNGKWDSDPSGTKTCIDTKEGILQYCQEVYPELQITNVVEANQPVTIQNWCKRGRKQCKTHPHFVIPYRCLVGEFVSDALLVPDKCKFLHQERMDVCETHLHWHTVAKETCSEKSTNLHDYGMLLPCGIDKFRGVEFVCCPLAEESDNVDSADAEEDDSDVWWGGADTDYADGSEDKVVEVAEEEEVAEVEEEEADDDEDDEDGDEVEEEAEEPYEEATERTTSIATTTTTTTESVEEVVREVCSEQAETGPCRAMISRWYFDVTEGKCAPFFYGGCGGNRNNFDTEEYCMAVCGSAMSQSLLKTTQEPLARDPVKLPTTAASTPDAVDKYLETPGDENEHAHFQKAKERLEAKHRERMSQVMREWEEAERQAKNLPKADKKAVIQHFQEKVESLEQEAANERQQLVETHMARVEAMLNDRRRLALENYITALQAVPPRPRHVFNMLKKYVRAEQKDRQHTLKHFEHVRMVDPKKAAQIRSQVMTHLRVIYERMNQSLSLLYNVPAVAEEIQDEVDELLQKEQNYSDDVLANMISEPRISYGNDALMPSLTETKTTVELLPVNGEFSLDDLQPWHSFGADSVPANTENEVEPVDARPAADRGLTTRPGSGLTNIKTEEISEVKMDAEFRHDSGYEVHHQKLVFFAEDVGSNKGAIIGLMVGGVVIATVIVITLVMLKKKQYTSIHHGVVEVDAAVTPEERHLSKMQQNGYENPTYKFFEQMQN

Homo sapiens [39] = species on record: Homo sapiens; assay: Selectivity ratio of Ki for amyloid beta(1 to 42) to Ki for human Tau
[40] = molecular target: Microtubule-associated protein tau (Homo sapiens, UniProt P10636); assay: Binding affinity to human Tau aggregates after 30 mins by Thioflavin-S-based fluorescence assay
Microtubule-associated protein tau, sequence (P10636 whole entry): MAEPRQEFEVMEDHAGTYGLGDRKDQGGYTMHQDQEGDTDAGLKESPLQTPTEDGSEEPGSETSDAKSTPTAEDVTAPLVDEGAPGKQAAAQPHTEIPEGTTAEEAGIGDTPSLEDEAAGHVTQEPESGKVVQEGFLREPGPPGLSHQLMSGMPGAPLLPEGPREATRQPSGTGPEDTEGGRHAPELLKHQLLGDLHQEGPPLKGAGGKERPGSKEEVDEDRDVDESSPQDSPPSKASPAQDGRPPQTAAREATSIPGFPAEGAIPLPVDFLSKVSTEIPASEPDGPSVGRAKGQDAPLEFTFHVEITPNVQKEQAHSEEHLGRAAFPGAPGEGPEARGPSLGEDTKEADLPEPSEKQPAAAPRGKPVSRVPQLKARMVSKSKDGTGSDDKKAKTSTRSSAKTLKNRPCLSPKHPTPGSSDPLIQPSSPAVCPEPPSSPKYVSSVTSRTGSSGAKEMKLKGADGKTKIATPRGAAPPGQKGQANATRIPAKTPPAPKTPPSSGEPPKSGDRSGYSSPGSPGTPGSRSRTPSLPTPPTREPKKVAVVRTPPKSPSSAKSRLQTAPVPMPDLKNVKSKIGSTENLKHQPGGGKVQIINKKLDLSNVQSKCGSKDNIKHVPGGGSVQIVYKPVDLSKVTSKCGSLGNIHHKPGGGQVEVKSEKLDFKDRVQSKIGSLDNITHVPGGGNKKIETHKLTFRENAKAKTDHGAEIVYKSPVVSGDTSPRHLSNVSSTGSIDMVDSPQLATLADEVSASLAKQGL

Homo sapiens [41] = species on record: Homo sapiens; assay: Binding affinity to neurofibrillary tangles in entorhinal cortex of alzheimer disease patient after 10 mins by Thioflavin-S-based fluorescence microscopy; format: tissue-based

Compound: CNc1ccc(/C=C2\Nc3ccc([125I])cc3C2=O)cc1
- Drug uptake (Intestine [1]): 4.24 % ID/g
- Drug uptake (Kidney [2]): 18.16 % ID/g
- Drug uptake (Brain [3]): 0.74 % ID/g
- Drug uptake (Blood [4]): 1.95 % ID/g
- Drug uptake (Stomach [5]): 2.96 %ID
- Drug uptake (Spleen [6]): 9.67 % ID/g
- Drug uptake (Liver [7]): 6.26 % ID/g
- Drug uptake (Brain [8]): 2.45 % ID/g
- Drug uptake (Blood [9]): 3.3 % ID/g
- Drug uptake (Stomach [10]): 0.77 %ID
- Drug uptake (Stomach [11]): 1.7 %ID
- Drug uptake (Heart [12]): 5.36 % ID/g
- Drug uptake (Pancreas [13]): 5.43 % ID/g
- Drug uptake (Intestine [14]): 7.55 % ID/g
- Drug uptake (Spleen [15]): 14.05 % ID/g
- Drug uptake (Kidney [16]): 19.35 % ID/g
- Drug uptake (Blood [17]): 7.5 % ID/g
- Drug uptake (Blood [18]): 4.97 % ID/g
- Drug uptake (Brain [19]): 0.23 % ID/g
- Drug uptake (Kidney [20]): 10.01 % ID/g
- Drug uptake (Liver [21]): 11.59 % ID/g
- Drug uptake (Spleen [22]): 6.97 % ID/g
- Drug uptake (Spleen [23]): 7.75 % ID/g
- Drug uptake (Pancreas [24]): 2.95 % ID/g
- Drug uptake (Heart [25]): 2.65 % ID/g
- Drug uptake (Liver [26]): 12.4 % ID/g
- Drug uptake (Brain [27]): 1.75 % ID/g
- Drug uptake (Heart [28]): 8.52 % ID/g
- Drug uptake (Liver [29]): 9.51 % ID/g
- Drug uptake (Kidney [30]): 13.48 % ID/g
- Drug uptake (Stomach [31]): 2.92 %ID
- Drug uptake (Pancreas [32]): 2.25 % ID/g
- Ratio (Brain [33]): 3.31
- Drug uptake (Intestine [34]): 9.86 % ID/g
- Drug uptake (Heart [35]): 6.32 % ID/g
- Drug uptake (Pancreas [36]): 1.4 % ID/g
- Drug uptake (Intestine [37]): 2.29 % ID/g

Compound: Nc1ccc(-c2ccc3cc(OCC[18F])ccc3n2)cc1
- Ratio (Brain [33]): < 2

Compound: CN(C)c1ccc(C=C2C(=O)Nc3ccc(I)cc32)cc1
- Ki [38]: 4670 nM
- Ratio Ki (Homo sapiens [39]): 7.8
- Ki [40]: 599 nM

Compound: CNc1ccc(/C=C2\Nc3ccc(I)cc3C2=O)cc1
- Ki [38]: 116 nM
- Ratio Ki (Homo sapiens [39]): 1.03
- Ki [40]: 112 nM

Compound: CN(C)c1ccc(C=C2C(=O)Nc3ccc([125I])cc32)cc1
- Drug uptake (Intestine [1]): 2.54 % ID/g
- Drug uptake (Kidney [2]): 5.04 % ID/g
- Drug uptake (Brain [3]): 1.43 % ID/g
- Drug uptake (Blood [4]): 0.69 % ID/g
- Drug uptake (Stomach [5]): 3.52 %ID
- Drug uptake (Spleen [6]): 3.37 % ID/g
- Drug uptake (Liver [7]): 6.89 % ID/g
- Drug uptake (Brain [8]): 2.47 % ID/g
- Drug uptake (Blood [9]): 1.07 % ID/g
- Drug uptake (Stomach [10]): 0.91 %ID
- Drug uptake (Stomach [11]): 1.64 %ID
- Drug uptake (Heart [12]): 2.53 % ID/g
- Drug uptake (Pancreas [13]): 5.08 % ID/g
- Drug uptake (Intestine [14]): 8.33 % ID/g
- Drug uptake (Spleen [15]): 1.2 % ID/g
- Drug uptake (Kidney [16]): 3.83 % ID/g
- Drug uptake (Blood [17]): 1.77 % ID/g
- Drug uptake (Blood [18]): 1.64 % ID/g
- Drug uptake (Brain [19]): 0.44 % ID/g
- Drug uptake (Kidney [20]): 2.51 % ID/g
- Drug uptake (Liver [21]): 9.43 % ID/g
- Drug uptake (Spleen [22]): 3.66 % ID/g
- Drug uptake (Spleen [23]): 0.66 % ID/g
- Drug uptake (Pancreas [24]): 3.19 % ID/g
- Drug uptake (Heart [25]): 0.61 % ID/g
- Drug uptake (Liver [26]): 10.56 % ID/g
- Drug uptake (Brain [27]): 2.1 % ID/g
- Drug uptake (Heart [28]): 10.17 % ID/g
- Drug uptake (Liver [29]): 12.37 % ID/g
- Drug uptake (Kidney [30]): 9.63 % ID/g
- Drug uptake (Stomach [31]): 3.57 %ID
- Drug uptake (Pancreas [32]): 1.76 % ID/g
- Ratio (Brain [33]): 1.7
- Drug uptake (Intestine [34]): 12.11 % ID/g
- Drug uptake (Heart [35]): 1.3 % ID/g
- Drug uptake (Pancreas [36]): 0.6 % ID/g
- Drug uptake (Intestine [37]): 1.57 % ID/g

Compound: [11CH3]Nc1ccc(-c2ccc3ccccc3n2)cc1
- Ratio (Brain [33]): 3.65

Compound: CN(C)c1ccc(/C=C2\Nc3ccc(I)cc3C2=O)cc1
- Ki [38]: 31 nM
- Ratio Ki (Homo sapiens [39]): 1.77
- Activity (Homo sapiens [41]): Active
- Ki [40]: 17 nM
